Our source for the IC50 values is ChEMBL document CHEMBL1130830, “Broad spectrum matrix metalloproteinase inhibitors: an examination of succinamide hydroxamate inhibitors with P1 C alpha gem-disubstitution” (Bioorg Med Chem Lett, 1998).

In test [1] the target is T1, Interstitial collagenase (Homo sapiens, UniProt P03956).
T1 sequence (P03956 whole entry): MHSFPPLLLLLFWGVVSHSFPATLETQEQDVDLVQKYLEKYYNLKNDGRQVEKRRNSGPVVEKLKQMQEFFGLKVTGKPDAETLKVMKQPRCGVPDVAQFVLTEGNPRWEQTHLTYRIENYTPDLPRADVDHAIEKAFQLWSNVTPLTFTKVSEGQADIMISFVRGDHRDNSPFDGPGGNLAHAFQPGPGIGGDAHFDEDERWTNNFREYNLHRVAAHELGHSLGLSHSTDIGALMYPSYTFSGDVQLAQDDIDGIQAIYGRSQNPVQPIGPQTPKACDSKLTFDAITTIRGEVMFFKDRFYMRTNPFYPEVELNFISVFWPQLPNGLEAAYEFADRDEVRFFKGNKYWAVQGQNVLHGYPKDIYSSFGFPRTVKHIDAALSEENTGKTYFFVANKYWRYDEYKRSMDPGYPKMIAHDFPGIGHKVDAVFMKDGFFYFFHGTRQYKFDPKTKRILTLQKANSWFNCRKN
Kind of test: Inhibition of matrix metalloprotease-1 (MMP-1).

Test [2] concerns the target Stromelysin-1 (Homo sapiens, UniProt P08254). Kind of test: Inhibition of Matrix metalloprotease-3 (MMP-3).
Test [3] concerns the target 72 kDa type IV collagenase (Homo sapiens, UniProt P08253). Put plainly: Inhibition of Matrix metalloprotease-2 (MMP-2).

Stromelysin-1, sequence (P08254 whole entry): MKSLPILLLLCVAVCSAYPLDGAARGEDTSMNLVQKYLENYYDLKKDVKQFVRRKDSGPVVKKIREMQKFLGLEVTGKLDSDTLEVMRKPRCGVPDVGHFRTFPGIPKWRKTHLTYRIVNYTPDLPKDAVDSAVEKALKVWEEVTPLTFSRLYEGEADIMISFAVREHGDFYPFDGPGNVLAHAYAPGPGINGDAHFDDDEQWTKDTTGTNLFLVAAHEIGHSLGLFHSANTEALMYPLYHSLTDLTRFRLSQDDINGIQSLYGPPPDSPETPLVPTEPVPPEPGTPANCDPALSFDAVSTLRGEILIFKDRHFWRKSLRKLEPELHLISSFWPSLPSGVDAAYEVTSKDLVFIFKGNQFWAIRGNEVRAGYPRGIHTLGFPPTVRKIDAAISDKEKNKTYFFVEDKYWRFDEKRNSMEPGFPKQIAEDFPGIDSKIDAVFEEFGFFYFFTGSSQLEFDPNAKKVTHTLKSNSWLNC
72 kDa type IV collagenase, sequence (P08253 whole entry): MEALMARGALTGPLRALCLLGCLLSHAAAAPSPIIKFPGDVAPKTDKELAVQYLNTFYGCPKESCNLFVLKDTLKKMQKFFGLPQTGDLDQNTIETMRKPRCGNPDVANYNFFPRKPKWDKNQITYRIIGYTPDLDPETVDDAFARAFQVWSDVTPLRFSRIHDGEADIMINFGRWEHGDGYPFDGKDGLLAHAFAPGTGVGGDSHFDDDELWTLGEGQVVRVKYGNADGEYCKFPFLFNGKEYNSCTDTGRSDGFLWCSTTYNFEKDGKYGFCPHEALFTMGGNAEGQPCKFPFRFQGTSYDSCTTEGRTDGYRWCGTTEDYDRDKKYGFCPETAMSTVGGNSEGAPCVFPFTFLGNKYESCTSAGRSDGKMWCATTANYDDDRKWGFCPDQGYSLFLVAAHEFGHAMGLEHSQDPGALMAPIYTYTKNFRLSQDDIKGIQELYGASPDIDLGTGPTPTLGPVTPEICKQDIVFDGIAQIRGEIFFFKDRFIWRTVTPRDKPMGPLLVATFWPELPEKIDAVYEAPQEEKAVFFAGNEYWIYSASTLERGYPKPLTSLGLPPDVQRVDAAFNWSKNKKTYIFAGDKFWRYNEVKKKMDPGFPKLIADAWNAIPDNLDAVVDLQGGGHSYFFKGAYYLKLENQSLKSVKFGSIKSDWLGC

Regarding `C=CCC(C(=O)NO)C(CC(C)C)C(=O)N[C@@H](Cc1ccccc1)C(=O)NC` (single isomer, unassigned), the IC50 (in general, the concentration at which inhibition is half-maximal) in test [1] was 2.2 nM; in test [2] it was 12 nM; in test [3] it was 1.8 nM.
Take `C=CC[C@](C)(C(=O)NO)[C@@H](CC(C)C)C(=O)N[C@@H](CC1CCCCC1)C(=O)NCCc1ccccc1`: the IC50 in test [1] was 110 nM; in test [2], 160 nM; in test [3], 64 nM.
For `CNC(=O)[C@H](Cc1ccccc1)NC(=O)[C@H](CC(C)C)[C@H](C)C(=O)NO` the same measures were 1.3 nM, 50 nM and 1.3 nM.
For `CNC(=O)[C@H](Cc1ccccc1)NC(=O)[C@H](CC(C)C)C1(C(=O)NO)CCCC1` the same measures were 37 nM, 170 nM and 50 nM.
For `C=CC[C@](C)(C(=O)NO)[C@@H](CC(C)C)C(=O)N[C@@H](CC1CCCCC1)C(=O)NCCc1ccc(S(N)(=O)=O)cc1` the same measures were 6.9 nM, 15 nM and 23 nM.
Take `C=CC[C@](C)(C(=O)NO)[C@@H](CC(C)C)C(=O)N[C@@H](Cc1ccccc1)C(=O)Nc1ccccc1`: the IC50 in test [1] is 120 nM; in test [2], 91 nM; in test [3], 52 nM.
`C=CC[C@@](C)(C(=O)NO)[C@@H](CC(C)C)C(=O)N[C@@H](Cc1ccccc1)C(=O)NC`: the figures for the IC50 in test [1], in test [2] and in test [3] were 52 nM, 420 nM and 66 nM, respectively.
The like results for `CNC(=O)[C@H](Cc1ccccc1)NC(=O)[C@H](CC(C)C)C(C)(C)C(=O)NO` were, in that order, 9.4 nM, 170 nM and 2.3 nM.
For `C=CCC(CC=C)(C(=O)NO)[C@@H](CC(C)C)C(=O)N[C@@H](Cc1ccccc1)C(=O)NC` the same measures were 550 nM, 2600 nM and 110 nM.
On to `C=CC[C@@H](C(=O)NO)[C@@H](CC(C)C)C(=O)N[C@@H](Cc1ccccc1)C(=O)NC`, for which the IC50 came to 35 nM in test [1], 59 nM in test [2] and 35 nM in test [3].
Turning to `C=CC[C@](C)(C(=O)NO)[C@@H](CC(C)C)C(=O)N[C@@H](Cc1ccccc1)C(=O)NC`, the IC50 in test [1] is 3.1 nM; in test [2], 25 nM; in test [3] it was 4.2 nM.
On to `C=CC[C@](C)(C(=O)NO)[C@@H](CC(C)C)C(=O)N[C@H](C(=O)Nc1ccccc1)C(C)(C)C`, for which the IC50 is 50 nM in test [1], 95 nM in test [2] and 6.2 nM in test [3].
For `C=CC[C@](C)(C(=O)NO)[C@@H](CC(C)C)C(=O)N[C@H](C(=O)NC)C(C)(C)C` the same measures were 2.7 nM, 480 nM and 2.5 nM.
